Laboratory results as given in patent US20150315188A1, “COMPOUNDS AND METHODS FOR TREATMENT OF HYPERTENSION” (MEDIVATION TECHNOLOGIES, INC., priority 2012, published 2015).

What was measured:
Set-up in all cases: purchased Milipore (Millipore)
[1] = target: T1, Human adrenergic α2B receptor (Homo sapiens, UniProt P18089); test: Radioligand binding, adrenergic α2B (Protocol Group B); settings: Protocol Group B; for Percentage inhibition of ligand binding, Adrenergic α2B (30 nM) / inhibition at 0.03 µM: 30 nM compound; for Percentage inhibition of ligand binding, Adrenergic α2B (30 nM): 0.03 µM; for Percentage inhibition of ligand binding, Adrenergic α2B (10 nM): 0.01 µM; for inhibition at 0.03 µM: read-out: Percentage inhibition of ligand binding, Adrenergic α2B (30 nM)
T1 sequence (P18089 1-450): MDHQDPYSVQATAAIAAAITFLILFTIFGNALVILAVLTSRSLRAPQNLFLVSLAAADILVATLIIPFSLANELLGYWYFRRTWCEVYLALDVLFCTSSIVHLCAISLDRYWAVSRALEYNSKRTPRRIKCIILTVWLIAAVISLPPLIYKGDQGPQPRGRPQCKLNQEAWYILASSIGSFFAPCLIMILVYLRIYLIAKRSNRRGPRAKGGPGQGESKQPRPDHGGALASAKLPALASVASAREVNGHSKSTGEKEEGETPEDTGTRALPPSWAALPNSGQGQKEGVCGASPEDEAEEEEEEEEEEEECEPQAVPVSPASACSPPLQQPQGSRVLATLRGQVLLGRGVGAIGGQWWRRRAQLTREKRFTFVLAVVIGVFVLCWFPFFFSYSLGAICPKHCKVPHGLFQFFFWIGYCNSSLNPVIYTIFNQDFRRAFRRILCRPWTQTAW
Outline: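 Compounds at various concentrations in 1% DMSO were tested on recombinant membranes in Tris-HCl pH 7.4 buffer containing MgCl2, CaCl2 and 0.2% BSA.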

[2] = target: T2, Human adrenergic α2A receptor (Homo sapiens, UniProt P08913); test: Radioligand binding, adrenergic α2A (Protocol Group B); settings: Protocol Group B; for Percentage inhibition of ligand binding, Adrenergic α2A (0.3 μM): 0.3 μM compound
T2 sequence (P08913 1-465): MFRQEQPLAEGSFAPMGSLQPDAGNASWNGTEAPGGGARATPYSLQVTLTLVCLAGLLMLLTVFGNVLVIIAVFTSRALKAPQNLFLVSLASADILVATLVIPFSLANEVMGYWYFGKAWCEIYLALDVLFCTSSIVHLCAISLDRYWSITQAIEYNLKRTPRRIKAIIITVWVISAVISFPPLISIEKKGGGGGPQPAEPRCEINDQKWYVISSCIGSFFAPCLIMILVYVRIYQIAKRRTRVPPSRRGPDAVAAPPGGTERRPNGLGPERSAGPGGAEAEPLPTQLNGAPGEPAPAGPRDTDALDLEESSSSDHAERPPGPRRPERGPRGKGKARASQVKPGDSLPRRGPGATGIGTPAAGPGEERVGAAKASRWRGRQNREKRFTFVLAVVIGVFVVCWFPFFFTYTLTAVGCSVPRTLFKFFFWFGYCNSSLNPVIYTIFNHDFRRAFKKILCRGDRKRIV
Outline: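 Compounds (1% DMSO vehicle, various concentrations) competed against 2 nM [^3H]MK-912 on recombinant receptor membranes for 60 min at 25° C, Tris-HCl pH 7.4 buffer with Mg2+, Ca2+, BSA. Bound radioligand filtered and counted; 10 μM rauwolscine set nonspecific binding. Values: percent inhibition of specific binding or estimated Ki.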

[3] = target: T3, Human adrenergic α1B receptor (Homo sapiens, UniProt P35368); test: Radioligand binding, adrenergic α1B (Protocol Group B); settings: Protocol Group B; for inhibition at 0.3 µM / Percentage inhibition of ligand binding, Adrenergic α1B (0.3 μM): 0.3 μM compound; for inhibition at 0.3 µM: read-out: Percentage inhibition of ligand binding, Adrenergic α1B (0.3 μM)
T3 sequence (P35368 1-520): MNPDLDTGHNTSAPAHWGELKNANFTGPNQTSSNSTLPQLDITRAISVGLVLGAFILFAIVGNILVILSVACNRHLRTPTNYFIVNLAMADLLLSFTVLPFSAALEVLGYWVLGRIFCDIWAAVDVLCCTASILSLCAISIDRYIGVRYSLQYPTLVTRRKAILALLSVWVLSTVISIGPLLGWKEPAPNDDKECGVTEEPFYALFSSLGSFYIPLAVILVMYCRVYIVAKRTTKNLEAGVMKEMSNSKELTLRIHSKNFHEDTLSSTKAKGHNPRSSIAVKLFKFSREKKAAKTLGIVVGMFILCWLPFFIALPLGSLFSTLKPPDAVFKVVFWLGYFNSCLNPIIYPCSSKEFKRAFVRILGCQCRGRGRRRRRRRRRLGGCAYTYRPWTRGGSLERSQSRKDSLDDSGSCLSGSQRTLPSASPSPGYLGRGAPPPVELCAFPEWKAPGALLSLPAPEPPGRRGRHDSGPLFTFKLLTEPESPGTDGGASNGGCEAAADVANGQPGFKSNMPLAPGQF
Outline: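 Values are percent inhibition of specific [3H]prazosin (0.3 nM) binding or estimated Ki, from filtration counting. Human α1B recombinant membranes, Tris-HCl pH 7.4 buffer with MgCl2 and EDTA, 60 min at 25 °C, 1% DMSO vehicle; 10 μM prazosin defined nonspecific binding.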

Row | SMILES | Percentage inhibition of ligand binding, Adrenergic α2B (30 nM) [1] | Percentage inhibition of ligand binding, Adrenergic α2A (0.1 μM) ([2]; 0.1 μM compound) | Percentage inhibition of ligand binding, Adrenergic α1B (0.1 μM) ([3]; 0.1 μM compound) | further results
1 | Cc1ccc2c(c1)c1c(n2CC(C)(O)c2ccc(F)cc2)CN2CCC1C2 (single isomer, unassigned) [134d] | 22% | 15% | 28% | 
2 | OC(Cn1c2c(c3cc(Cl)cc(F)c31)C1CCCN1CC2)c1ccncc1 (single isomer, unassigned) [135c] |  | 12% | 1% | Percentage inhibition of ligand binding, Adrenergic α2B (10 nM) ([1]; 10 nM compound): 4%; inhibition at 0.03 µM [1]: 10%; Percentage inhibition of ligand binding, Adrenergic α2A (0.3 μM) [2]: 18%; inhibition at 0.3 µM [3]: 12%
3 | OC(Cn1c2c(c3cc(Cl)cc(F)c31)C1CCCN1CC2)c1ccncc1 (single isomer, unassigned) [135d] | 8% | 0% | −7% | Percentage inhibition of ligand binding, Adrenergic α2B (10 nM) ([1]; 10 nM compound): −1%; Percentage inhibition of ligand binding, Adrenergic α2A (0.3 μM) [2]: 2%; Percentage inhibition of ligand binding, Adrenergic α1B (0.3 μM) [3]: 9%
4 | Cc1cc(F)cc2c3c(n(CC(O)c4ccncc4)c12)CCN1CCCC31 (single isomer, unassigned) [136c] | 9% | 3% | 0% | 
5 | Cc1cc(F)cc2c3c(n(CC(O)c4ccncc4)c12)CCN1CCCC31 (single isomer, unassigned) [136d] | −8% | −12% | −2% | 
6 | Cc1cc(F)c2c(c1)c1c(n2CC(O)c2ccncc2)CCN2CCCC12 (single isomer, unassigned) [137c] | 10% |  |  | inhibition at 0.01 µM ([1]; 10 nM compound, read-out: Percentage inhibition of ligand binding, Adrenergic α2B (10 nM)): 14%; inhibition at 0.1 µM ([2]; 0.1 μM compound, read-out: Percentage inhibition of ligand binding, Adrenergic α2A (0.1 μM)): 10%; Percentage inhibition of ligand binding, Adrenergic α2A (0.3 μM) [2]: 2%; inhibition at 0.1 µM ([3]; 0.1 μM compound, read-out: Percentage inhibition of ligand binding, Adrenergic α1B (0.1 μM)): 12%; inhibition at 0.3 µM [3]: 14%
7 | Cc1cc(F)c2c(c1)c1c(n2CC(O)c2ccncc2)CCN2CCCC12 (single isomer, unassigned) [137d] | 24% | 15% | 19% | Percentage inhibition of ligand binding, Adrenergic α2B (10 nM) ([1]; 10 nM compound): 21%; Percentage inhibition of ligand binding, Adrenergic α2A (0.3 μM) [2]: 16%; Percentage inhibition of ligand binding, Adrenergic α1B (0.3 μM) [3]: 18%
8 | Cc1ccc2c(c1)c1c(n2CC(OCC2CCC2)c2ccncc2)CCN2CCCC12 (single isomer, unassigned) [138c] | −9% | 0% | 4% | 
9 | Cc1ccc2c(c1)c1c(n2CC(OCC2CCC2)c2ccncc2)CCN2CCCC12 (single isomer, unassigned) [138d] | 11% | 4% | 0% | 

Second part, led by results:

Row | Percentage inhibition of ligand binding, Adrenergic α2B (30 nM) [1] | Percentage inhibition of ligand binding, Adrenergic α2A (0.1 μM) ([2]; 0.1 μM compound) | Percentage inhibition of ligand binding, Adrenergic α1B (0.1 μM) ([3]; 0.1 μM compound) | SMILES | further results
10 | 31% | 7% | 9% | CN1CCc2c(c3cc(CCO)ccc3n2CC(C)(O)c2cccnc2)C1 (single isomer, unassigned) [139a] | 
11 | 3% | 0% | 1% | CN1CCc2c(c3cc(CCO)ccc3n2CC(C)(O)c2cccnc2)C1 (single isomer, unassigned) [139b] | 
12 | −12% | −5% | −9% | CN1CCc2c(c3cc(CCO)ccc3n2CC(O)c2ccncc2)C1 (single isomer, unassigned) [140a] | 
13 | 56% | −11% | −4% | CN1CCc2c(c3cc(CCO)ccc3n2CC(O)c2ccncc2)C1 (single isomer, unassigned) [140b] | 
14 |  | 52% | 46% | Cc1cc(Cl)c2c(c1)c1c(n2CC(O)c2ccncc2)CCN2CCCC12 (single isomer, unassigned) [142a] | inhibition at 0.03 µM [1]: 92%
15 | 100% | 95% | 76% | Cc1cc(Cl)c2c(c1)c1c(n2CC(O)c2ccncc2)CCN2CCCC12 (single isomer, unassigned) [142b] | 
16 | 89% | 44% | 91% | OC(Cn1c2c(c3cc(Cl)ccc31)C1CCCN1CC2)c1ccncc1 (single isomer, unassigned) [143a] | 
17 | 100% | 93% | 94% | OC(Cn1c2c(c3cc(Cl)ccc31)C1CCCN1CC2)c1ccncc1 (single isomer, unassigned) [143b] | 
18 | 5% | 1% | 9% | OC(Cn1c2c(c3cc(Cl)ccc31)C1CCCN1CC2)c1ccncc1 (single isomer, unassigned) [143c] | 
19 | 4% | 7% | 15% | OC(Cn1c2c(c3cc(Cl)ccc31)C1CCCN1CC2)c1ccncc1 (single isomer, unassigned) [143d] | 
20 | 73% | 16% | 28% | OC(Cn1c2c(c3cc(F)cc(F)c31)C1CCCN1CC2)c1ccncc1 (single isomer, unassigned) [144a] | 
21 | 100% | 61% | 18% | OC(Cn1c2c(c3cc(F)cc(F)c31)C1CCCN1CC2)c1ccncc1 (single isomer, unassigned) [144b] | 
22 | −12% | 1% | −2% | OC(Cn1c2c(c3cc(F)cc(F)c31)C1CCCN1CC2)c1ccncc1 (single isomer, unassigned) [144c] | 
